Measured values published in ChEMBL document CHEMBL1828601, “Small molecule peptidomimetic inhibitors of importin α/β mediated nuclear transport” (Bioorg Med Chem, 2010).
The source made the active and inactive calls. The rule behind the calls is not given here.

Experiments:
[1] = Inhibition of importin alpha/beta-mediated nuclear transportation of Alexa555-BSA-NLS in human FGM cell nucleus after 30 mins by fluorescence microscopy; format: cell-based
FGM [2] = experiment: Inhibition of importin alpha/beta-mediated nuclear transportation of Alexa555-BSA-NLS in human FGM cell nucleus at 500 uM after 30 mins by fluorescence microscopy; format: cell-based
[3] = Inhibition of importin-beta binding to immobilized GST-IBB domain of importin alpha at 50 uM by surface plasmon resonance assay
[4] = Inhibition of importin-beta binding to immobilized GST-FG domain of Nup153 at 50 uM by surface plasmon resonance assay
[5] = Inhibition of importin-beta binding to immobilized GST-RanQLGTP at 50 uM by surface plasmon resonance assay
FGM [6] = experiment: Selectivity ratio of IC50 for importin alpha/beta-mediated nuclear transportation of Alexa555-BSA-NLS to IC50 for importin alpha/beta-mediated nuclear transportation of Alexa555-GST-M9 in human FGM cell nucleus; format: cell-based

- IC50 [1]: 106 µM
- Kd [3]: 0.042 µM
- Kd [4]: 0.016 µM
- Kd [5]: 0.061 µM
Structure (SMILES): CC[C@H](C)[C@H](N)C(=O)Nc1ccc(C(=O)N[C@@H](CCc2ccccc2)C(=O)O)cc1OCc1ccccc1
- inhibition (FGM [2]): Active
- Ratio IC50 (FGM [6]): > 15
